The subject of assay [1] is MCF7 cells. In words: H2DCFDA flow cytometry of reactive oxygen species. In kind it is cell-based. The note with it: 10^−7 M, fluorescence probe H2DCFDA. On the procedure:
(§1) Activation of the β3 receptor could increase mitochondrial content of MCF7 cells. BRL37344 and SR59230A were used to treat MCF7 cells and naked tumor-bearing rats each at 10^−7 M. The amount of mitochondrion was determined by MitoTracker probes. Mitochondrial membrane potential was determinded by JC1. The ROS content of the cells was determined by fluorescence probe H2DCFDA. ATP level was determined by ATP kit. MDC staining was determined by flowcytometer. GFP-LC3 eukaryotic expression vectors were used for transfection. […] BRL37344 protected mitochondrial membrane potential (FIG. 10), reduced intracellular ROS content (FIG. 11), and increased intracellular ATP level (FIG. 12).

Assay [2] concerns rat myocardial infarction models. Kind of assay: Rat myocardial infarction (heart failure) model: B-ultrasonography, tunel apoptosis, LVW/BW. It is filed as in vivo. The conditions noted are these: 1 mg/kg/day intraperitoneally, 4 weeks. On the procedure:
(§2) In rat myocardial infarction models, activation of the β-3 receptor could increase level of SIRT1 in cardiomyocyte, inhibit expression of p53, improve the cardiac function and achieve anti-apoptosis effect. The myocardial infarction model was created by ligation of anterior descending branch of rat left coronary artery. BRL37344 was intraperitoneally injected at 1 mg/kg/day, and heart B-ultrasonography was performed after 4 weeks. Heart tissue was determined for apoptosis (tunel method) and expression levels of SIRT1 and p53 (western blot). The ratio of left ventricular weight to body weight (LVW/BW) is determined. It can be seen from the results shown in FIGS. 3 to 5, that BRL37344 decreases p53 expression, cardiac cell apoptosis, and value of LVW/BW of heart failure rat, increases SIRT1 expression, alleviate cardiac hypertrophy and improve cardiac function.

Assay [3] has as its system MCF7 cells. In words: JC-1 flow cytometry of mitochondrial membrane potential. The conditions noted are these: 10^−7 M. In kind it is cell-based. The procedure: as §1
In another assay the test system is Rictor/α-Tubulin. Kind of assay: Rictor/α-Tubulin immunofluorescence double staining in cardiac fibroblast. In kind it is cell-based, rat. The note with it: cardiac fibroblast of rats, 10^−7 M, confocal microscope. From the text:
(§3) Beta-3 receptor promoted binding of mTORC2 to α-Tubulin in spindle apparatus. BRL37344 was used to treat cardiac fibroblast of rats at 10^−7 M. The cells were undergone mTOR/α-Tubulin immunohistochemical double staining and Rictor/α-Tubulin immunofluorescence double staining, and observed under confocal microscope.

For the next assay, the system named is mTOR/Rictor complex. In words: Western blot of mTOR/Rictor complex. In kind it is cell-based. The conditions noted are these: rat cardiomyocyte, 10^−7 M, 24 h, compared to control shRNA. On the procedure:
Activation of the β3 receptor could increase mTOR/Rictor complex in […]. shRNA of β3 adrenergic receptor, control shRNA, BRL37344 and SR59230A was used to treat rat cardiomyocyte each at 10^−7 M. After 24 h, total protein was extracted and subjected to western blot to determine the expression amount of mTOR and Rictor proteins.

The test system of assay [4] is SIRT1. In words: Western blot of SIRT1 in heart tissue of myocardial infarction rats. In kind it is in vivo. The note with it: heart failure rat, 1 mg/kg/day intraperitoneally, 4 weeks. On the procedure: as §2
In another assay the test system is naked tumor-bearing rats. Kind of assay: ATP content by ATP kit in tumor tissue of naked tumor-bearing rats. It is filed as in vivo, rat. The note with it: 10^−7 M. The procedure: as §1
For the next assay, the system named is SIRT4. In words: Quantitative PCR of SIRT4 in organs of aging rats. In kind it is in vivo. The note with it: 12-month male SD rats, 100 nmol per rat intraperitoneally, qd, 2 weeks, vs control group. From the text: (§4) Activation of the β3 receptor could increase the expression of SIRT1, SIRT3 and SIRT4 in heart, liver, brain, kidney and aorta of aging rats. Twenty 12-month male SD rats were randomly divided into 2 groups. The rats were intraperitoneally injected with BRL37344 at 100 nmol for each rat, qd, 2 weeks. The rats in control group were administrated with solvents of same volume. The rats were sacrificed to obtain heart, liver, brain, kidney and aorta, followed by total RNA extraction. The RNA was then reversely transcribed, followed by quantitative PCR to detect gene expression of SIRT1, SIRT3 and SIRT4. Compared to the control group, BRL37344 increases the expression of SIRT1, SIRT3 and SIRT4 in heart, liver, brain, kidney and aorta.

Another assay deals with cardiomyocyte. In words: Lipofuscin in cardiomyocyte under confocal microscope. The conditions noted are these: 10^−7 M, 10 days. It is filed as cell-based, rat. From the text:
Beta-3 receptor reduced amount of lipofuscin in cardiomyocyte. BRL37344 and SR59230A were used to treat cardiomyocyte each at 10^−7 M. After 10 days, cells were observed under confocal microscope for lipofuscin.

In assay [5] the test system is adipose-derived stem cells of rats. In words: β-Galactosidase staining of adipose-derived stem cells. In kind it is cell-based, rat. The note with it: 10^−7 M, 24 h, compared with SR59230A. On the procedure: Blockage of the β-3 receptor could increase level of β-galactosidase in adipose-derived stem cells and promote stem cell aging. BRL37344 and SR59230A were used to treat adipose-derived stem cells of rats each at 10^−7 M. After 24 h, cells were fixed using paraformaldehyde, and stained and photographed according to the specification of β-Galactosidase Staining Kit. BRL37344 decreases the level of β-galactosidase in adipose-derived stem cells compared with SR59230A, indicating agonisting of adrenergic β3 receptors of adipose-derived stem cells achieves anti-aging effect.

Assay [6] deals with SIRT1. In words: Quantitative PCR of SIRT1 in organs of aging rats. It is filed as in vivo. The note with it: 12-month male SD rats, 100 nmol per rat intraperitoneally, qd, 2 weeks, vs control group.
Source text: as §4

The subject of the next assay is mTOR/α-Tubulin. Kind of assay: mTOR/α-Tubulin double staining in cardiac fibroblast. In kind it is cell-based, rat. The note with it: cardiac fibroblast of rats, 10^−7 M, confocal microscope.
Source text: as §3

The test system of a further assay is SIRT3. Kind of assay: Quantitative PCR of SIRT3 in organs of aging rats. In kind it is in vivo. The conditions noted are these: 12-month male SD rats, 100 nmol per rat intraperitoneally, qd, 2 weeks, vs control group.
Source text: as §4

Assay [7] relates to p53. In words: Western blot of p53 in heart tissue of myocardial infarction rats. It is filed as in vivo. The note with it: heart failure rat, 1 mg/kg/day intraperitoneally, 4 weeks. On the procedure:
as §2

In assay [8] the test system is MCF7 cells. In words: MitoTracker/LC3B immunofluorescence double staining (mitochondrion content, mitophagy). It is filed as cell-based. The conditions noted are these: 10^−7 M. On the procedure:
as §1

Assay [9] relates to SIRT1. Kind of assay: Western blot of SIRT1 in MCF-7 cells treated with SR59230A. The note with it: 24 h, with increasing SR59230A concentration, western blot vs GAPDH. It is filed as cell-based. The procedure: (§5) MCF-7 cells were treated with SR59230A at different concentrations. After 24 h, the cells were lysed to extract total protein. The protein concentration was determined by BCA method. 10 μg of the protein was used to perform 10% SDS PAGE, and then transferred to a PVDF membrane. The membrane was blocked for 1 h with TBST (10 mmol/L Tris HCl, pH 7.5, 150 mmol/L NaCl, 0.1% Tween 20) containing 4% fat-free milk, and incubated overnight with p53 antibody (1:1000) and SIRT1 antibody (1:1000) at 4° C. The membrane was further incubated with secondary antibodies for 1 h after washing, followed by ECL color development. The same procedure is repeated 3 times. The gray values of protein bands were obtained through Fluorchem 8900 software and the ratio of target band to reference band (GAPDH) was calculated. Results are shown in FIGS. 1 and 2, wherein the expression level of p53 is increased as the increase of SR59230A concentration, while SIRT1 is decreased.

In assay [10] the test system is p53. In words: Western blot of p53 in MCF-7 cells treated with SR59230A. The conditions noted are these: 24 h, with increasing SR59230A concentration, western blot vs GAPDH. In kind it is cell-based. On the procedure:
as §5

The subject of assay [11] is MCF7 cells. Kind of assay: MDC staining by flowcytometer. The conditions noted are these: 10^−7 M. It is filed as cell-based. The procedure: as §1
Assay [12] concerns MCF7 cells. In words: GFP-LC3 eukaryotic expression vector transfection. In kind it is cell-based. The conditions noted are these: 10^−7 M, GFP-LC3 transfected cells. On the procedure:
as §1

In the case of `C[C@H](Cc1ccc(OCC(=O)O)cc1)NC[C@H](O)c1cccc(Cl)c1` [BRL37344], in the assay with MCF7 cells [1], the “intracellular ROS content” value is reported as “reduced”. Also, in assay [2], the cardiac hypertrophy entry was “alleviate” and the “ratio of left ventricular weight to body weight (LVW/BW)” value is given as “decreases”. The cardiac function result in [2] (heart B-ultrasonography, 1 mg/kg/day) was “improve”. In addition, the cardiac cell apoptosis entry in assay [2] (tunel method, 1 mg/kg/day) is on record as “decreases”. Also, in the assay on MCF7 cells [3], the mitochondrial membrane potential entry is reported as “protected”. Also, the “binding of Rictor to α-Tubulin” value in the assay on Rictor/α-Tubulin is “promoted”. For the same compound, in the assay on mTOR/Rictor complex, the mTOR/Rictor complex result is “increases”. Besides, the “SIRT1 expression in rat myocardia” value in the assay with SIRT1 [4] is given as “increases”. Moreover, in the assay on naked tumor-bearing rats, the “intracellular ATP level” value is listed as “increased”. The “expression of SIRT4 in heart, liver, brain, kidney and aorta” value in the assay on SIRT4 was “increases”. Moreover, the lipofuscin in cardiomyocyte entry with cardiomyocyte is on record as “significantly reduced”. For the same compound, in assay [5], the “level of β-galactosidase in adipose-derived stem cells” value is on record as “decreases”. The “expression of SIRT1 in heart, liver, brain, kidney and aorta” value in the assay with SIRT1 [6] is on record as “increases”. Also, in the assay with mTOR/α-Tubulin, the “binding of mTOR to α-Tubulin in spindle apparatus” value is “promoted”. Further, in the assay on SIRT3, the “expression of SIRT3 in heart, liver, brain, kidney and aorta” value is recorded as “increases”. For the same compound, the “p53 expression in rat myocardia” value in the assay on p53 [7] is listed as “decreases”.

Take `CCc1ccccc1OC[C@@H](O)CN[C@H]1CCCc2ccccc21` [SR59230A]: the content of mitochondrion entry with MCF7 cells [8] (MitoTracker probes) is given as “decreases”. The mitophagy result in the assay with MCF7 cells [8] (MitoTracker/LC3B double staining) is reported as “enhance”. Besides, the “expression level of SIRT1” value with SIRT1 [9] was “decreased”. Also, in the assay with MCF7 cells [3], the mitochondrial membrane potential entry was “damaged”. Besides, the “expression level of p53” value in the assay on p53 [10] is reported as “increased”. In addition, the MDC staining result in the assay with MCF7 cells [11] was “increased”. The GFP-LC3 fluorescent spots result with MCF7 cells [12] is “promoted to form many bright and green fluorescent spots”.

Source of the values: patent US8906955B2, “Use of adrenergic beta-3-receptor agonists in anti-aging” (priority 2012, dated 2014).
